{"source": "patent EP4786466A1", "about": "“QUINAZOLINE DERIVATIVE, SALT THEREOF, AND PHARMACEUTICAL COMPOSITION COMPRISING SAME AS ACTIVE INGREDIENT” (Korea Research Institute of Chemical Technology, priority 2023, dated 2025)", "key": {"[1]": {"test_system": "MCF7 breast cancer cell lines", "test": "Cell viability analysis, WST-8 assay, MCF7", "details": "for Cell viability (%) WST-8, MCF7 (1 µM): compound 1 µM, 72 hours; for IC50: read-out: IC50(nM) Cell viability (MCF7)", "description": "(§1) MCF7 breast cancer cell lines and MCF10A normal breast cancer cell lines were treated with serial dilutions of the compounds of the present invention ranging from 1 µM to 15.63 nM for 72 hours. Cell viability was measured by the WST-8 assay (Cyto XTM cell viability assay kit; LPS solution, Daejeon, Korea) according to the manufacturer's instructions."}, "[2]": {"test_system": "MCF10A normal breast cancer cell lines", "test": "Cell viability analysis, WST-8 assay, MCF10A", "details": "compound 1 µM, 72 hours", "description": "as §1"}, "[3]": {"test_system": "MCF10A normal breast cell lines", "test": "Cell viability analysis, WST-8 assay, MCF10A", "details": "read-out: IC50(nM) Cell viability (MCF10A)", "description": "as §1"}, "[4]": {"molecular_target": "T1, Recombinant GST-TAG-MASTL (Homo sapiens, UniProt Q96GX5)", "T1 construct": "GST; purchased Thermo Fisher Scientific", "T1 sequence (Q96GX5 1-879)": "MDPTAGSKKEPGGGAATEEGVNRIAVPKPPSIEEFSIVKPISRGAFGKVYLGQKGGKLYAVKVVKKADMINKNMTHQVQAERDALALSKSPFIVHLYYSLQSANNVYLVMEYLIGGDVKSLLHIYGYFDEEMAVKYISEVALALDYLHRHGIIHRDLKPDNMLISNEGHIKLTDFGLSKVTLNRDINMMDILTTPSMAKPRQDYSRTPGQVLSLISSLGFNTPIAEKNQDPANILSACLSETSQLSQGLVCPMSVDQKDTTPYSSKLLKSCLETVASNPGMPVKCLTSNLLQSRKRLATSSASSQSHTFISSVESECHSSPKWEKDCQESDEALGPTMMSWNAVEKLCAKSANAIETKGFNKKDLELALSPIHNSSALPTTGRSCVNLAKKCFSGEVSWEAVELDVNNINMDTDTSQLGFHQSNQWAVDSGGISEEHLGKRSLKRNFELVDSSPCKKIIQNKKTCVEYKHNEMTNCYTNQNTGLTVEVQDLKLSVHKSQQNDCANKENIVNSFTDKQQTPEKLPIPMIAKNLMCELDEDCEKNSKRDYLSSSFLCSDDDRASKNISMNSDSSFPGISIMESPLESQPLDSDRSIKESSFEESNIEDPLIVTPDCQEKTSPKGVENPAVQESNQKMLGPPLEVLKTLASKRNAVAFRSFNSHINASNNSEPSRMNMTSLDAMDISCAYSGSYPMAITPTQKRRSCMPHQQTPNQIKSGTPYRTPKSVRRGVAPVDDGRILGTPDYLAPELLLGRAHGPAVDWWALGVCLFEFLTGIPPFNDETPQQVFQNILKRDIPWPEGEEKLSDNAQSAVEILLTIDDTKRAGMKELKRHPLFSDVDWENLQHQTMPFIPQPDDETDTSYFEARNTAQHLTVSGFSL", "test": "HTRF-based kinase assay (HTRF KinEASE assay kit)", "format": "biochemical", "details": "for activity at 1 µM: read-out: MASTL activity (%) HTRF (1 µM)", "text": "Recombinant GST-TAG-MASTL (Thermo Fisher Scientific, MA, USA) was used for HTRF-based kinase assays. The HTRF KinEASE assay kit (CisBio, MA, USA) was used according to the manufacturer's instructions."}, "pENSA": {"test_system": "pENSA", "test": "pENSA level by immunofluorescence (described method: in vitro kinase analysis with GST-tag-MASTL and His-tag-ENSA)", "format": "cell-based", "details": "for pENSA (%) Immunofluor ecense (1 µM): compound 1 µM", "method_in_brief": "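In vitro kinase reaction using recombinant GST-tagged MASTL with His-tagged ENSA as substrate; phosphorylated ENSA (pENSA) serves as read-out of MASTL activity. Cell lines named: MCF7 breast cancer and MCF10A.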"}, "[5]": {"test": "Cell viability analysis, WST-8 assay, MCF10A", "details": "human, mcf10a cells", "description": "as §1"}, "MASTL": {"molecular_target": "T2, MASTL (Homo sapiens, UniProt Q96GX5)", "T2 sequence (Q96GX5 1-879)": "T1 sequence (Q96GX5 1-879)", "details": "reported MASTL inhibitors, background art; cited from earlier work"}, "in vitro": {"test": "in vitro", "details": "human, mcf10a cells", "description": "as §1"}, "[6]": {"details": "HTRF, read-out: IC50(nM) MASTL activity"}}, "note": "Where two headings read alike, the source gives them in different places."}
{"smiles": "CC(C)S(=O)(=O)N1CC2CCC1CN2c1nc(Nc2cc(C3CC3)[nH]n2)c2ccccc2n1", "note": "(centres unmarked) [compound 24a, M (5-cyclopropyl-1G-pyrazol-3-yl)-2-(5-(isopropylsulfonyl)-2,5-diazabicyclo[2.2.2]octan-2-yl)quinazolin-4-amine]", "values": [{"measurement": "Cell viability (%) WST-8, MCF7 (1 µM)", "setting": "[1]", "value": 4.8, "unit": "%"}, {"measurement": "IC50", "setting": "[1]; MCF7, WST-8, 72 hours", "value": 954, "unit": "nM"}, {"measurement": "Cell viability (%) WST-8, MCF10A (1 µM)", "setting": "[2]", "value": 15.7, "unit": "%"}, {"measurement": "IC50", "setting": "[3]; MCF10A, WST-8, 72 hours", "value": 420, "unit": "nM"}, {"measurement": "IC50", "setting": "[4]; [6]", "value": 180, "unit": "nM"}, {"measurement": "MASTL activity (%) HTRF (1 µM)", "setting": "[4]; compound 1 µM", "value": 29.9, "unit": "%"}, {"measurement": "pENSA (%) Immunofluor ecense (1 µM)", "setting": "pENSA", "value": 14, "unit": "%"}, {"measurement": "IC50", "setting": "pENSA; read-out: IC50(nM) pENSA", "value": 263, "unit": "nM"}]}
{"smiles": "COc1ccc(CNc2nc(Nc3cc(C4CC4)[nH]n3)c3ccccc3n2)cc1", "note": "[4ad, M^4-(5-cyclopropyl-1G-pyrazol-3-yl)-M^2-(4-methoxybenzyl)quinazoline-2,4-diamine]", "values": [{"measurement": "Cell viability (%) WST-8, MCF7 (1 µM)", "setting": "[1]", "value": 96.4, "unit": "%"}, {"measurement": "Cell viability (%) WST-8, MCF10A (1 µM)", "setting": "[2]", "value": 96.0, "unit": "%"}, {"measurement": "MASTL activity (%) HTRF (1 µM)", "setting": "[4]; compound 1 µM", "value": 65.7, "unit": "%"}, {"measurement": "pENSA (%) Immunofluor ecense (1 µM)", "setting": "pENSA", "value": 143, "unit": "%"}]}
{"smiles": "O=S(=O)(C1CCCCC1)N1CC2CCC1CN2c1nc(Nc2cc(C3CC3)[nH]n2)c2ccccc2n1", "note": "(centres unmarked) [compound 24b, 2-(5-(cyclohexylsulfonyl)-2,5-diazabicyclo[2.2.2]octan-2-yl)-M-(5-cyclopropyl-1G-pyrazol-3-yl)quinazolin-4-amine]", "values": [{"measurement": "Cell viability (%) WST-8, MCF7 (1 µM)", "setting": "[1]", "value": 90.7, "unit": "%"}, {"measurement": "Cell viability (%) WST-8, MCF10A (1 µM)", "setting": "[2]", "value": 26.5, "unit": "%"}, {"measurement": "IC50", "setting": "[3]; MCF10A, WST-8, 72 hours", "value": 684, "unit": "nM"}, {"measurement": "IC50", "setting": "[4]; [6]", "value": 198, "unit": "nM"}, {"measurement": "MASTL activity (%) HTRF (1 µM)", "setting": "[4]; compound 1 µM", "value": 24.8, "unit": "%"}, {"measurement": "pENSA (%) Immunofluor ecense (1 µM)", "setting": "pENSA", "value": 36, "unit": "%"}, {"measurement": "IC50", "setting": "pENSA; read-out: IC50(nM) pENSA", "value": 770, "unit": "nM"}]}
{"smiles": "N#Cc1ccccc1S(=O)(=O)N1CC2CCC1CN2c1nc(Nc2cc(C3CC3)[nH]n2)c2ccccc2n1", "note": "(centres unmarked) [compound 24e, 2-((5-(4-((5-cyclopropyl-1G-pyrazol-3-yl)amino)quinazolin-2-yl)-2,5-diazabicyclo[2.2.2]octan-2-yl)sulfonyl)benzonitrile]", "values": [{"measurement": "Cell viability (%) WST-8, MCF7 (1 µM)", "setting": "[1]", "value": 2.2, "unit": "%"}, {"measurement": "IC50", "setting": "[1]; MCF7, WST-8, 72 hours", "value": 543, "unit": "nM"}, {"measurement": "Cell viability (%) WST-8, MCF10A (1 µM)", "setting": "[2]", "value": 2.8, "unit": "%"}, {"measurement": "IC50", "setting": "[3]; MCF10A, WST-8, 72 hours", "value": 184, "unit": "nM"}, {"measurement": "IC50", "setting": "[4]; [6]", "value": 213, "unit": "nM"}, {"measurement": "MASTL activity (%) HTRF (1 µM)", "setting": "[4]; compound 1 µM", "value": 10.8, "unit": "%"}, {"measurement": "pENSA (%) Immunofluor ecense (1 µM)", "setting": "pENSA", "value": 4.1, "unit": "%"}, {"measurement": "IC50", "setting": "pENSA; unit µM, read-out: IC50 pENSA", "value": 1900, "unit": "nM"}]}
{"smiles": "N#CCc1ccc(Nc2nc(Nc3cc(C4CC4)[nH]n3)c3ccccc3n2)cc1", "note": "[compound 3a, 2-(4-((4-((5-cyclopropyl-1G-pyrazol-3-yl)amino)quinazolin-2-yl)amino)phenyl)acetonitrile]", "values": [{"measurement": "viability at 1 µM", "setting": "[1]; Homo sapiens, MCF7, 72 h, read-out: Cell viability (%) WST-8, MCF7 (1 µM)", "value": 0.05, "unit": "%"}, {"measurement": "IC50", "setting": "[1]; Homo sapiens, MCF7, 72 h", "value": 207, "unit": "nM"}, {"measurement": "viability at 1 µM", "setting": "[5]", "value": 1.6, "unit": "%"}, {"measurement": "IC50", "setting": "[3]; Homo sapiens, MCF-10A, 72 h", "value": 29, "unit": "nM"}, {"measurement": "IC50", "setting": "[4]; [6]", "value": 178, "unit": "nM"}, {"measurement": "activity at 1 µM", "setting": "[4]; compound 1 µM", "value": 20.8, "unit": "%"}, {"measurement": "pENSA (%) Immunofluor ecense (1 µM)", "setting": "pENSA", "value": 5.1, "unit": "%"}, {"measurement": "IC50", "setting": "pENSA; read-out: IC50(nM) pENSA", "value": 100, "unit": "nM"}]}
{"smiles": "O=C(Nc1nc2ccccc2[nH]1)c1cccc(-n2cccc2)c1", "note": "[MKI-1]", "values": [{"measurement": "IC50", "setting": "MASTL", "value": 9.9, "unit": "µM"}]}
{"smiles": "O=S(=O)(c1cccs1)N1CC2CCC1CN2c1nc(Nc2cc(C3CC3)[nH]n2)c2ccccc2n1", "note": "(centres unmarked) [compound 24d, M-(5-cyclopropyl-1G-pyrazol-3-yl)-2-(5-(thiophen-2-ylsulfonyl)-2,5-diazabicyclo[2.2.2]octan-2-yl)quinazolin-4-amine]", "values": [{"measurement": "Cell viability (%) WST-8, MCF7 (1 µM)", "setting": "[1]", "value": 6.4, "unit": "%"}, {"measurement": "IC50", "setting": "[1]; MCF7, WST-8, 72 hours", "value": 626, "unit": "nM"}, {"measurement": "Cell viability (%) WST-8, MCF10A (1 µM)", "setting": "[2]", "value": 4.9, "unit": "%"}, {"measurement": "IC50", "setting": "[3]; MCF10A, WST-8, 72 hours", "value": 210, "unit": "nM"}, {"measurement": "IC50", "setting": "[4]; [6]", "value": 597, "unit": "nM"}, {"measurement": "MASTL activity (%) HTRF (1 µM)", "setting": "[4]; compound 1 µM", "value": 32.9, "unit": "%"}, {"measurement": "pENSA (%) Immunofluor ecense (1 µM)", "setting": "pENSA", "value": 2.6, "unit": "%"}, {"measurement": "IC50", "setting": "pENSA; unit µM, read-out: IC50 pENSA", "value": 1900, "unit": "nM"}]}
{"smiles": "c1ccc2c(Nc3cc(C4CC4)[nH]n3)nc(N3CC4CCC(C3)N4)nc2c1", "note": "[20' (B), 2-(3,8-diazabicyclo[3.2.1]octan-3-yl)-M-(5-cyclopropyl-1G-pyrazol-3-yl)quinazolin-4-amine trifluoroacetic acid]", "values": [{"measurement": "viability at 1 µM", "setting": "[1]; Homo sapiens, MCF7, 72 h, read-out: Cell viability (%) WST-8, MCF7 (1 µM), compound 1 µM, 72 hours", "value": 32, "unit": "%"}, {"measurement": "IC50", "setting": "[1]; Homo sapiens, MCF7, 72 h", "value": 365, "unit": "nM"}, {"measurement": "viability at 1 µM", "setting": "in vitro", "value": 34.9, "unit": "%"}, {"measurement": "IC50", "setting": "[3]; Homo sapiens, MCF-10A, 72 h", "value": 596, "unit": "nM"}, {"measurement": "IC50", "setting": "[4]", "value": 106, "unit": "nM"}, {"measurement": "activity at 1 µM", "setting": "[4]", "value": 6.6, "unit": "%"}, {"measurement": "pENSA (%) Immunofluor ecense (1 µM)", "setting": "pENSA", "value": 21, "unit": "%"}, {"measurement": "IC50", "setting": "pENSA; read-out: IC50(nM) pENSA", "value": 755, "unit": "nM"}]}
{"smiles": "Clc1ccc(Nc2cccc(-c3cn[nH]c3)c2)cc1", "note": "[GKI-1]", "values": [{"measurement": "IC50", "setting": "MASTL", "value": 4.9, "unit": "µM"}]}
